One assay concerns NCIADR Res. Description: MTT cytotoxicity GI50, NCI-ADR/Res. As to conditions: Homo sapiens, NCI/ADR-RES. The class given is cell-based. An excerpt: Colon cancer cell line HCT116 was generously provided by Dr Bert Vogelstein, Johns Hopkins Medical Institutions, Baltimore, MD. Pancreatic cancer cell line Panc-1 was obtained from Dr Alan Epstein, University of Southern California. All other cell lines were purchased from the American Type Culture Collection (Manassas, VA). MDA-MB-435 cell line was used in the GSTO1 knockdown experiment as it had high GSTO1 expression (Supplementary Fig. 17). We also tested active compounds in NCI-ADR/Res cell line since GSTO1 is implicated in drug resistance. Cell lines were cultured in RPMI 1640 or […] supplemented with 10% fetal bovine serum at 37 °C in a humidified atmosphere of 5% CO2. All cell lines were maintained in culture under 30 passages and tested regularly for Mycoplasma contamination using PlasmoTest (InvivoGen, San Diego, CA, USA).
Cell proliferation was assessed by a MTT assay. Cancer cells were seeded in 96-well microtitre plates and, after overnight attachment, treated with GSTO1 inhibitors. After 72 h, MTT solution (3 mg ml^−1; 20 μl) was added to each well and cells were incubated for 3 h at 37 °C. After incubation, media from each well was removed and the dark blue formazan crystals formed by live cells were dissolved in DMSO (150 μl per well). The absorbance intensity was measured at 570 nm on a microplate reader (Molecular Devices, Sunnyvale, CA, USA). Cell viability after 24 h treatment was assessed using ApoTox-Glo triplex assay (Promega) according to the manufacturer's protocol. At least three independent dose–response experiments with each concentration tested in triplicate were performed for each cell line.

In another assay the test system is HCT116 cells. Description: Cell cycle analysis by flow cytometry. The class given is cell-based, human. As to conditions: 5 μM, 24 h. Here is the method: Cells were seeded at a density of 0.5 × 10^6 per well in a six-well plate. After overnight attachment, cells were treated with C1-27 (5 μM) for 24 h and collected using trypsin. Cells were then washed twice with PBS containing 10% serum and fixed with 70% ethanol overnight at −20 °C. Fixed cells were washed twice in PBS containing 10% serum and stained with 50 μg ml^−1 propidium iodide solution containing 100 μg ml^−1 RNase A for 1 h at 37 °C. Cell cycle was analysed on a BD LSR II flow cytometer (BD Biosciences) and data were analysed using ModFit software.
In general terms: Flow cytometry measures light scatter and fluorescence of single cells or particles in a stream.

Broadly, the GI50 is the concentration giving 50% growth inhibition. A high value points to less potent growth inhibition. For `CN(C)S(=O)(=O)c1cc(NC(=O)CCl)ccc1Cl` [C1-27], halving of growth in the assay on NCIADR Res (GI50) required 3.7 µM. Besides, the S-phase population entry with HCT116 cells was “increase”.

(Values after paper PMC5059489, “Mechanistic evaluation and transcriptional signature of a glutathione S-transferase omega 1 inhibitor” (Nature Communications, 2016).)
